Assay results published in patent US10548984B2 (priority 2015, dated 2020).
Non-standard residues stand in square brackets, D forms with d. Residues, ends and D or L forms follow the SMILES beside them.

Assays:
mice [1] = assay: Immunogenicity study (serum antibody ELISA); format: in vivo, mouse; conditions: i.v. injection
Method: Mice were injected intravenously with 50 μg of siRNA complexed with either the Test-Peptide or Test-RI Peptide vectors, with the peptide vector alone or with PBS as negative control for three consecutive days, and then on every alternate day for 14 days. […] To detect the presence of antibodies to the Test-Peptide or Test-RI-peptide, serum was collected from the mice on day 21 and serial double dilution (1:100 followed by 10 dilutions) of the sera was incubated in 384 well microtitre plate coated with either Test-Peptide or Test-RI-peptide (50 ng/well). The bound antibody was detected with a goat anti-mouse Ig-HRP conjugate.

mice [2] = conditions: mouse, in vivo
[3] = system: nAchRs present on M17 cells; assay: Competitive binding assay and immunocytochemistry of biotinylated peptide on M17 cells; set-up: species or system human; conditions: avidin-FITC
Method: To confirm that the binding specificity of the peptide to the neuronal cells was mediated by its binding to nAchRs, a competition assay was performed using alpha bangarotoxin (BTX) peptide, which is a competitive antagonist for nAchRs.
M17 cells were incubated with the biotinylated-peptide (SEQ ID NO:2) (2.5 μM) in the absence or presence of BTX peptide (0.01 μM or 0.1 μM) at 4° C. for 1 hr, stained with avidin-FITC and analyzed by FACS.
Immunocytochemistry was used to confirm the binding of the peptide (SEQ ID NO:2) to M17 cells. M17 cells were incubated with or without biotinylated-peptides (SEQ ID NO:2) or with the MAT peptide which served as a negative control. The cells were then stained with avidin-FITC and viewed by fluorescence microscopy.

Row | Compound | antibody response (mice [1]) | production of inflammatory cytokines (mice [2]) | binding of peptide to M17 cells (FITC-positive immunostaining) ([3]; biotinylated peptide, fluorescence microscopy) | inhibition of biotinylated-peptide (SEQ ID NO:2) binding to M17 cells ([3]; peptide 2.5 μM, BTX 0.01 μM or 0.1 μM, 4° C., 1 hr, FACS)
1 | CC[C@@H](C)[C@@H](NC(=O)[C@@H](Cc1ccccc1)NC(=O)[C@H](NC(=O)[C@@H](CC(N)=O)NC(=O)[C@@H](CO)NC(=O)[C@@H](CCCNC(=N)N)NC(=O)CNC(=O)[C@@H](CCCCN)NC(=O)CN(C)C(=O)CN(C)C(=O)CN(C)C(=O)CN(C)C(=O)[C@@H](CCCNC(=N)N)NC(=O)[C@@H](CCCNC(=N)N)NC(=O)[C@@H](CCCNC(=N)N)NC(=O)[C@@H](CCCNC(=N)N)NC(=O)[C@@H](CCCNC(=N)N)NC(=O)[C@@H](CCCNC(=N)N)NC(=O)[C@@H](CCCNC(=N)N)NC(=O)[C@@H](CCCNC(=N)N)NC(=O)[C@H](N)CCCNC(=N)N)[C@H](C)O)C(=O)N[C@H](CC(=O)O)C(=O)N[C@H](CS)C(=O)O [Test-RI-peptide, H-rrrrrrrrr-Sar-Sar-Sar-Sar-kGrsntfidc] | did not elicit an antibody response | did not elicit an antibody response or result in the production inflammatory cytokines |  | 
2 | CC[C@H](C)[C@H](NC(=O)[C@H](CC(=O)O)NC(=O)[C@@H](N)CS)C(=O)N[C@@H](Cc1ccccc1)C(=O)N[C@H](C(=O)N[C@@H](CC(N)=O)C(=O)N[C@@H](CO)C(=O)N[C@@H](CCCNC(=N)N)C(=O)NCC(=O)N[C@@H](CCCCN)C(=O)NCC(=O)NCC(=O)NCC(=O)NCC(=O)N[C@H](CCCNC(=N)N)C(=O)N[C@H](CCCNC(=N)N)C(=O)N[C@H](CCCNC(=N)N)C(=O)N[C@H](CCCNC(=N)N)C(=O)N[C@H](CCCNC(=N)N)C(=O)N[C@H](CCCNC(=N)N)C(=O)N[C@H](CCCNC(=N)N)C(=O)N[C@H](CCCNC(=N)N)C(=O)N[C@H](CCCNC(=N)N)C(=O)O)[C@@H](C)O [Test-peptide] (H-CDIFTNSRGKGGGG[dR][dR][dR][dR][dR][dR][dR][dR][dR]-OH; C-terminus assumed) | did not elicit an antibody response | did not elicit an antibody response or result in the production inflammatory cytokines |  | 
3 | CDIFTNSRGK [peptide (SEQ ID NO:2), RVG derived 10 residue peptide] |  |  | binds specifically to neuronal cells | 
4 | alpha bangarotoxin [BTX, reference compound] |  |  |  | inhibited peptide binding to M17 cells in a dose-dependent manner
